Measurements as given in ChEMBL document CHEMBL3352773, “Synthesis and evaluation of the 2,4-diaminoquinazoline series as anti-tubercular agents” (Bioorg Med Chem, 2014).

Columns and labels:
Format in all cases: functional
[1] = test system: Mycobacterium tuberculosis; experiment: Antituberculosis activity against Mycobacterium tuberculosis H37Rv RM1 IS6110 at nt 801 mutant assessed as complete growth inhibition after 5 days
[2] = test system: Mycobacterium tuberculosis; experiment: Antituberculosis activity against Mycobacterium tuberculosis H37Rv RM2 GT deletion at 175 to 176 mutant assessed as complete growth inhibition after 5 days
[3] = test system: Mycobacterium tuberculosis; experiment: Antituberculosis activity against Mycobacterium tuberculosis H37Rv RM7 C115W mutant assessed as complete growth inhibition after 5 days

Measured: MIC

FC(F)(F)c1ccc(CNc2nc(N3CCCCC3)nc3ccccc23)cc1
25 µM: all assays above
